According to patent publication US7141589B2, “Methods of inhibiting formation of vascular channels and methods of inhibiting proliferation” (The United States of America as represented by the …, priority 2001, dated 2006):
“And” between values parts separate entries of the source, which are not always exact repeats. Identical values can stand only once. Like-named read-outs stand apart in the source and are kept apart here.

Experiments:
[1] = test system: HUVEC; experiment: Inhibition of DNA synthesis in HUVEC ([3H]thymidine incorporation); format: cell-based; details: Homo sapiens, read-out: IC50 for inhibition of DNA synthesis
Description: The test compounds were added at the indicated concentrations to exponentially growing HUVEC in 24-well plates (1×10^5 cells/well). […] DNA was precipitated with 5% trichloroacetic acid, washed once with 5% trichloroacetic acid, and dissolved in 0.2 ml of 0.2 N NaOH for measurement of radioactivity.

[2] = test system: HUVEC; experiment: Tube formation on Matrigel by HUVEC; format: cell-based, human; details: 18 h; for concentration at which disruption of tube formation was manifest: HUVEC on Matrigel
Description: The formation of tubes on Matrigel by HUVEC was assessed as described (Kubota et al., J. Cell. Biol. 107(4): 1589–1598 (1988) and Ponce, In Vitro Matrigel Angiogenesis Assays. Totowa, N.J.: Humana Press Inc., 2000) with minor modifications as follows. Matrigel, 0.3 ml, was added to each well of a 24-well plate. After the Matrigel had gelled, HUVEC (5×10^4 cells), trypsinized from an exponentially growing culture, were added to each well in 0.2 ml of supplemented EBM-2. Test compounds were added in duplicate for each concentration and incubated at 37° C., 5% CO2, for 18 h. The medium was aspirated the next day, and the cells were fixed and stained with Diff-Quick Fix and staining solution II (Baxter Scientific Products, McGaw, Ill.).

[3] = test system: prolyl 4-hydroxylase; experiment: Inhibition of collagen proline 4-hydroxylation in HUVEC ([3H]proline labeling); format: cell-based, human
Description: For the determination of collagen proline 4-hydroxylation, exponentially growing HUVEC were plated in 60-mm dishes. After cell attachment, ascorbic acid (50 μg/ml), β-aminopropionitrile (30 μg/ml), and the test compounds were added along with [^3H]proline (20 μCi/ml). After an 18-h incubation, labeled proteins (including collagen) released into the medium were precipitated with 10% trichloroacetic acid. After washing three times with 5% trichloroacetic acid solution, the precipitated proteins were hydrolyzed in 6N HCl at 115° C. for 24 h. Unlabeled hydroxyproline was added to each sample. Radioactive proline and hydroxyproline were separated by thin layer chromatography on silica gel-coated glass plates in 75% phenol (phenol:water, 75:25 w/w) containing 0.2 mg/ml NaCN (Brenner et al., Dünnschict-Chromatographie von Aminosäuren. Experientia 16: 378–383 (1960). The positions of proline and hydroxyproline were visualized by the ninhydrin reaction. Hydroxyproline separated from proline with Rf values of 0.45 and 0.58, respectively. The silica gel in the hydroxyproline and proline areas was scraped off, eluted with 0.5 ml of water, and the radioactivity in each spot was counted. The degree of proline hydroxylation was estimated from the ratio of [^3H]hydroxyproline to the total radioactivity in [^3H]proline plus [^3H]hydroxyproline.

[4] = test system: HUVEC; experiment: Cell cycle analysis of HUVEC by flow cytometry; format: cell-based, human; details: for concentration that gave close to the maximum accumulation (>70%) of HUVEC in G1: 24 h of treatment
Description: (§1) Exponentially growing HUVEC were treated with the test compounds for 24 or 48 h, and processed for cell cycle analysis. After harvesting cells by trypsin treatment, isolation and staining of cell nuclei were performed using a CycleTEST™ PLUS DNA Reagent Kit (Becton & Dickinson, Rutherford, N.J.), according to the procedure recommended by the manufacturer. Briefly, nuclei were released from cells by treatment with a nonionic detergent and trypsin. The nuclear chromatin was stabilized with spermine. Propidium iodide was used to stain the DNA. Fluorescence histograms were generated with a FACSCalibur cytometer (Becton & Dickinson, Rutherford, N.J.), using CELLQuest software.

[5] = biological target: T1, deoxyhypusine hydroxylase (Homo sapiens, UniProt Q9BU89); experiment: Inhibition of deoxyhypusine hydroxylation in HUVEC ([3H]spermidine labeling); format: cell-based; details: for IC50: [3H]spermidine, 18-20 h
T1 construct: endogenous in cells; host or cells: HUVEC
T1 sequence (Q9BU89 1-302): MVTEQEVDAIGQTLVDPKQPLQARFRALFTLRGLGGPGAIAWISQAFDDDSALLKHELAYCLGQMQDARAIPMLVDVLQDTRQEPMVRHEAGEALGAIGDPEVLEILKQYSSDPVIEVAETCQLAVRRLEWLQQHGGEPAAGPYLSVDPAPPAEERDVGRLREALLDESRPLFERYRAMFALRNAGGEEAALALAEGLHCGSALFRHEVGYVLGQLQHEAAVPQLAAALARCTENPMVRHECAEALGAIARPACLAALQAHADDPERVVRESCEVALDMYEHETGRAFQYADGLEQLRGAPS
Description: (§2) Exponentially growing HUVEC (5×10^5 cells per 60-mm dish) were incubated with 5 μCi/ml of [1,8-^3H]spermidine for 18 h in the presence or absence of the indicated concentrations of inhibitors. The cells were washed with PBS and harvested by centrifugation at 300×g for 5 minutes. Cellular proteins were precipitated with 10% trichloroacetic acid containing 1 mM each of unlabeled spermidine, spermine and putrescine, and the precipitates were washed three times to remove radiolabeled free polyamines. The washed precipitates were hydrolyzed in 6 N HCl for 18 h at 115° C. Radiolabeled hypusine and deoxyhypusine released by acid hydrolysis were separated by ion exchange chromatography using an automated Dionex D-400 amino acid analyzer (Park et al., (1982), supra). The radioactivity in the hypusine and the deoxyhypusine fractions was measured using a Beckman liquid scintillation spectrometer.

[6] = test system: chick aortic arch rings; experiment: Chick aortic arch ring sprouting on Matrigel
Description: The assay was carried out as described previously for rat aortic rings (Gho et al., 1999), supra) with a slight modification. Briefly, the aortic arches were dissected from 14-day-old chick embryos, cleaned free of unwanted tissue, and cut into 0.8 mm slices. Each ring was transferred into the center of a well of a 24-well plate to which 1.5 μl of Matrigel had just been added. Ten μl of ice-cold Matrigel were added immediately to embed the ring. When the Matrigel was solidified, 500 μl of supplemented EBM-2 were added to each well. After addition of the test compounds in sextuplicate for each concentration, the plates were incubated at 37° C. with 5% CO2, and the degree of sprouting was assessed by a blinded observer after 48 and 72 h.

[7] = test system: Siha cells; experiment: Cell cycle arrest in Siha cells by flow cytometry; format: cell-based, human; details: 30 μm
Description: as §1
(§3) Siha cells were incubated for 20 hours with increasing concentrations of ciclopirox and then metabolically labeled to determine the ability to inhibit DNA synthesis, as described in Example 4, and the ability to inhibit deoxyhypusine hydroxylation, as described in Example 2. Cell cycle arrest was assessed by flow cytometry, as described in Example 5.

[8] = biological target: T1, deoxyhypusine hydroxylase; experiment: Inhibition of deoxyhypusine hydroxylation in Siha cells; format: cell-based; details: 30 μM, 20 hours
Description: as §2, §3

[9] = test system: Siha cells; experiment: Inhibition of DNA synthesis in Siha cells; format: cell-based, human; details: log-phase Siha cells, 20 hours
Description: The test compounds were added at the indicated concentrations to exponentially growing HUVEC in 24-well plates (1×10^5 cells/well). At 10 h, [^3H]thymidine (1 μCi/well) was added. After an additional 2-h incubation, the cells were washed twice with PBS. DNA was precipitated with 5% trichloroacetic acid, washed once with 5% trichloroacetic acid, and dissolved in 0.2 ml of 0.2 N NaOH for measurement of radioactivity.
as §3

NC(Cn1ccc(=O)c(O)c1)C(=O)O (stereo not shown) [mimosine] was tested, and the IC50 ([1]; 18 h) was 455 µM, the “impairment of tube formation” value ([2]; 400 μM) was “little sign of impairment” and the “inhibition of proline hydroxylation” value ([3]; 400 μM) was “only minor inhibition”. The “increase in G1” value ([4]; 400 μM, 24 h incubation) was “did not cause a significant increase in G1”, the IC50 [5] was 191 µM and the “inhibition of sprout growth” value ([6]; 400 μM, 72 h) was “moderate inhibition”.
For CC(=O)N(O)CCCCCNC(=O)CCC(=O)N(O)CCCCCNC(=O)CCC(=O)N(O)CCCCCN [deferoxamine], the IC50 ([1]; 18 h of treatment) was 16 µM, the “inhibition of proline hydroxylation” value ([3]; 100 μM) was 40% and the “concentration that gave close to the maximum accumulation (>70%) of HUVEC in G1” value [4] was 50 µM. The IC50 [5] was 16 µM and ~16 µM.
With Cc1cc(C2CCCCC2)n(O)c(=O)c1 [ciclopirox] the IC50 ([1]; 18 h, 18 h of treatment) was roughly 10 µM, the “cell cycle effect” value [7] was “arrest in late G1” and the “suppression of deoxyhypusine hydroxylation” value [8] was “totally suppressed”. The “concentration at which disruption of tube formation was manifest” value [2] was 10 to 20 µM, the “inhibition of DNA synthesis” value [9] was “sharp, dose-dependent inhibition” and the “inhibition of proline hydroxylation” value ([3]; 10 μM) was 63%. The “concentration that gave close to the maximum accumulation (>70%) of HUVEC in G1” value [4] was 30 µM, the “concentration giving cell cycle arrest similar to that at 24 h with 30 μM” value ([4]; 48 h treatment) was 10 µM and the “concentration above which no [3H]hypusine was detectable (complete inhibition of deoxyhypusine hydroxylase)” value ([5]; 20 h) was greater than 10 µM. The “concentration at which only [3H]hypusine but no [3H]deoxyhypusine was detected (no inhibition)” value ([5]; 20 h) was no more than 2.5 µM, the IC50 [5] was ~5 µM and 5 µM and the “relative inhibition of sprouting” value ([6]; 72 h) was “the most inhibitory”.
For c1ccc(-c2ccccn2)nc1 [2,2′-dipyridyl], the IC50 ([1]; 18 h of treatment) was 55 µM, the “concentration at which disruption of tube formation was manifest” value [2] was 100 µM and the “concentration that gave close to the maximum accumulation (>70%) of HUVEC in G1” value [4] was 100 µM. The IC50 [5] was 26 µM.
For Cc1c(O)c(=O)ccn1C [deferiprone, 1,2-dimethyl-3-hydroxypyrid-4-one], the IC50 ([1]; 18 h, 18 h of treatment) was 130 µM, the “inhibition of tube formation” value ([2]; 200 μM) was “Modest inhibition” and the “concentration that gave close to the maximum accumulation (>70%) of HUVEC in G1” value [4] was 200 µM. For the same molecule, the IC50 [5] was 117 µM and the “concentration showing a strong inhibition of sprouting” value ([6]; 72 h of incubation) was 400 µM.
